{"source": "ChEMBL document CHEMBL4219032", "about": "“Triple Reuptake Inhibitors as Potential Therapeutics for Depression and Other Disorders: Design Paradigm and Developmental Challenges” (J Med Chem, 2018)", "key": {"[1]": {"target": "T1, Sodium-dependent serotonin transporter (Homo sapiens, UniProt P31645)", "T1 sequence (P31645 whole entry)": "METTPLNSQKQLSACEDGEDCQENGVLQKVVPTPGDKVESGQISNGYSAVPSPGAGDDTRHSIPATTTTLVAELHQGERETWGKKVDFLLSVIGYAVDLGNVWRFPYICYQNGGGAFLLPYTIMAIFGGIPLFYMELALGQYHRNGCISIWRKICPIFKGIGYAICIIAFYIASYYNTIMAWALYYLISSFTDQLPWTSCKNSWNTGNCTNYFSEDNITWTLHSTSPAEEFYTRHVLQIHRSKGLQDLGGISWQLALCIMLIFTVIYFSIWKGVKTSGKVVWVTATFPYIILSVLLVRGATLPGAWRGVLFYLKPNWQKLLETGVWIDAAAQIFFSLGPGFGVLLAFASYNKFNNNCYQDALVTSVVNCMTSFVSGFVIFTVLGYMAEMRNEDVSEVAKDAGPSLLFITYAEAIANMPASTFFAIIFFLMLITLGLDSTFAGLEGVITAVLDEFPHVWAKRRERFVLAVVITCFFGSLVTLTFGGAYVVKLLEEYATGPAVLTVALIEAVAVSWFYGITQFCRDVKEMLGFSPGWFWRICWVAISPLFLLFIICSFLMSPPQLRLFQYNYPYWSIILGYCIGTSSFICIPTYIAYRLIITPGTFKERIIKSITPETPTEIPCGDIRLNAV", "test": "Inhibition of SERT (unknown origin)-mediated uptake"}, "[2]": {"target": "T2, Sodium-dependent dopamine transporter (Homo sapiens, UniProt Q01959)", "T2 sequence (Q01959 whole entry)": "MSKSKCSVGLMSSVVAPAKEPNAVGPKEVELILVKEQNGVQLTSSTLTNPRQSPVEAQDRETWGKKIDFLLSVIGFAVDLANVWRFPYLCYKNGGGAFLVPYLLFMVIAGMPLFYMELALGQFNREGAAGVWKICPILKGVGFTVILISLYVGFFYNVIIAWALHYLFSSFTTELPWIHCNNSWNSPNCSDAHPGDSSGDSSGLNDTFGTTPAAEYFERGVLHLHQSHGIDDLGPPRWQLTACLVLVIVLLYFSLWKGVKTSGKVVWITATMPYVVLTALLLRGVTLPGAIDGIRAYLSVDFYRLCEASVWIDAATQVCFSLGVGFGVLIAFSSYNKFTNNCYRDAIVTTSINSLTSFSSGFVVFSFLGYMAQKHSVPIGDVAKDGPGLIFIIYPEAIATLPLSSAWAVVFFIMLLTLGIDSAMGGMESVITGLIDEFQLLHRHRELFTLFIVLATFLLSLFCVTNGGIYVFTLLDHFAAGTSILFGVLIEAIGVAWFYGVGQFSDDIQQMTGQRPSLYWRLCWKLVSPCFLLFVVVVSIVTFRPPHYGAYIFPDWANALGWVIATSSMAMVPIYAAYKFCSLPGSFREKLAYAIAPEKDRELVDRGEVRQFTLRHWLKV", "test": "Inhibition of DAT (unknown origin)-mediated uptake"}, "[3]": {"target": "T1, Sodium-dependent serotonin transporter", "test": "Binding affinity to human SERT"}, "[4]": {"target": "T3, Sodium-dependent noradrenaline transporter (Homo sapiens, UniProt P23975)", "T3 sequence (P23975 whole entry)": "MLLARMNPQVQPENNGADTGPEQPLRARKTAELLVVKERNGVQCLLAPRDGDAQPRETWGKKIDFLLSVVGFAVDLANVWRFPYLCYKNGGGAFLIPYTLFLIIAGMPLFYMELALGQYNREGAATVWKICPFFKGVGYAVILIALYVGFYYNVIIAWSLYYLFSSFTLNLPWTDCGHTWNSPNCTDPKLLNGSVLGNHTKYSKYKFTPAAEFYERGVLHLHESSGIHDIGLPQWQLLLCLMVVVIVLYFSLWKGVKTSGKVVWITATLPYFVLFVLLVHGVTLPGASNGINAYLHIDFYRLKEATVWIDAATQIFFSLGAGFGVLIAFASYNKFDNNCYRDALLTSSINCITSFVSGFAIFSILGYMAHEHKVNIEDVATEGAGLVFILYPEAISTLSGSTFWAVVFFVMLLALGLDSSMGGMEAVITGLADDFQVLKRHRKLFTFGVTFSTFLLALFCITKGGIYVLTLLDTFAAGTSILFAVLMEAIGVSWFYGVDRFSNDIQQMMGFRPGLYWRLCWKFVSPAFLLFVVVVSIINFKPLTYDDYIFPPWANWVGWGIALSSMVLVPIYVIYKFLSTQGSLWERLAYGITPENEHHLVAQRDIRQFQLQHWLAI", "test": "Binding affinity to human NET"}, "[5]": {"target": "T2, Sodium-dependent dopamine transporter", "test": "Binding affinity to human DAT"}, "[6]": {"test_system": "Homo sapiens", "test": "In vivo receptor occupancy at SERT in human at 8 to 16 mg after 24 hrs post dose by [11C]-DASB based PET imaging analysis", "type": "functional"}, "[7]": {"target": "T3, Sodium-dependent noradrenaline transporter", "description": "Binding affinity to NET (unknown origin)"}, "[8]": {"test_system": "Homo sapiens", "test": "In vivo receptor occupancy at DAT in human at 8 to 16 mg measured 24 hrs post dose by [11C]-PE2I based PET imaging analysis", "type": "functional"}, "[9]": {"test": "Tmax in human at 8 to 36 mg by LC-MS/MS analysis", "type": "ADME, organism-based", "settings": "in vivo"}, "[10]": {"test": "Half life in human at 4 to 8 mg", "type": "ADME, organism-based", "settings": "in vivo"}, "[11]": {"test": "Elimination half life in human at 8 to 36 mg by LC-MS/MS analysis", "type": "ADME, organism-based", "settings": "in vivo, read-out: beta t1/2"}, "[12]": {"target": "T2, Sodium-dependent dopamine transporter", "description": "Binding affinity to DAT (unknown origin)"}, "[13]": {"target": "T3, Sodium-dependent noradrenaline transporter", "test": "Binding affinity to human NET expressed in HEK293 cells after 60 mins in presence of [3H]imipramine by liquid scintillation counting", "type": "cell-based"}, "[14]": {"target": "T1, Sodium-dependent serotonin transporter", "test": "biochemical", "type": "cell-based, HEK293", "description": "Binding affinity to human SERT expressed in HEK293 cells after 60 mins in presence of [3H]imipramine by liquid scintillation counting"}, "[15]": {"target": "T2, Sodium-dependent dopamine transporter", "test": "Binding affinity to human DAT expressed in HEK293 cells after 60 mins in presence of […] by liquid scintillation counting", "type": "cell-based"}, "[16]": {"target": "T1, Sodium-dependent serotonin transporter", "description": "Binding affinity to SERT (unknown origin)"}, "[17]": {"target": "Norepinephrine transporter (Rattus norvegicus, UniProt Q9WTR4)", "sequence (Q9WTR4 whole entry)": "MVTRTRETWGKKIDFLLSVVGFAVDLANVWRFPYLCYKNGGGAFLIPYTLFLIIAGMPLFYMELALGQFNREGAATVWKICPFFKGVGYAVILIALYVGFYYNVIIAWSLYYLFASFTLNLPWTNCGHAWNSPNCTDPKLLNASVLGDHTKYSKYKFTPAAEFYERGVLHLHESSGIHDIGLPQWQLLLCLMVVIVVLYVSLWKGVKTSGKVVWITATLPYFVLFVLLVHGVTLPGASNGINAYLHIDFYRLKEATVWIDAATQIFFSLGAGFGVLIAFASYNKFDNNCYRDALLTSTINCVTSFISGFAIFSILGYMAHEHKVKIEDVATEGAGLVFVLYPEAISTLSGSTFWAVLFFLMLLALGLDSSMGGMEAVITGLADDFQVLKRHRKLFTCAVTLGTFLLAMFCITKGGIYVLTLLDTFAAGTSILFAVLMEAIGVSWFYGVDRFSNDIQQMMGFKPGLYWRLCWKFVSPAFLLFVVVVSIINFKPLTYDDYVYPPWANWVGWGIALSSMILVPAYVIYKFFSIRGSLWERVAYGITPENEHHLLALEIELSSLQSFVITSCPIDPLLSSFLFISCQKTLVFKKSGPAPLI", "test": "Inhibition of rat brain NET assessed as reduction of [3H]-NE re-uptake preincubated for 30 mins followed by [3H]-NE addition measured after 5 mins by scintillation counting"}, "[18]": {"target": "Sodium-dependent serotonin transporter (Rattus norvegicus, UniProt P31652)", "sequence (P31652 whole entry)": "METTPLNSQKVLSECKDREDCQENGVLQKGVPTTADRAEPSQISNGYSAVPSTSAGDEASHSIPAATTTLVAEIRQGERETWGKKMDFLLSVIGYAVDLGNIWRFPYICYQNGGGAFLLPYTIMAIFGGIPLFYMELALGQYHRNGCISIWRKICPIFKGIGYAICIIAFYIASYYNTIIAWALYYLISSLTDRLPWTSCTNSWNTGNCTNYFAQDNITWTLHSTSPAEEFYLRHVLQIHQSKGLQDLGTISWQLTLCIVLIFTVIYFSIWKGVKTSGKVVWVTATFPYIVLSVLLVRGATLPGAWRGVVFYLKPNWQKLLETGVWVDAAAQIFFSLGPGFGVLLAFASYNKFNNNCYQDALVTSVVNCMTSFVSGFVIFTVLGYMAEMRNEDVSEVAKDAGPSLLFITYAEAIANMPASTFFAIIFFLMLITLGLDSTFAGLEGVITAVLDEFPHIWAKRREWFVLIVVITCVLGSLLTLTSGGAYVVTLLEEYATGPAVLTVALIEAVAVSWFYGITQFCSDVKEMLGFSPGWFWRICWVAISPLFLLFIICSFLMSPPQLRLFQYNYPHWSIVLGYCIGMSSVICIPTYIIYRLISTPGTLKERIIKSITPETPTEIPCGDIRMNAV", "test": "Inhibition of rat brain SERT assessed as reduction of [3H]5-HT re-uptake preincubated for 30 mins followed by [3H]5-HT addition measured after 5 mins by scintillation counting"}, "[19]": {"target": "Sodium-dependent dopamine transporter (Rattus norvegicus, UniProt P23977)", "sequence (P23977 whole entry)": "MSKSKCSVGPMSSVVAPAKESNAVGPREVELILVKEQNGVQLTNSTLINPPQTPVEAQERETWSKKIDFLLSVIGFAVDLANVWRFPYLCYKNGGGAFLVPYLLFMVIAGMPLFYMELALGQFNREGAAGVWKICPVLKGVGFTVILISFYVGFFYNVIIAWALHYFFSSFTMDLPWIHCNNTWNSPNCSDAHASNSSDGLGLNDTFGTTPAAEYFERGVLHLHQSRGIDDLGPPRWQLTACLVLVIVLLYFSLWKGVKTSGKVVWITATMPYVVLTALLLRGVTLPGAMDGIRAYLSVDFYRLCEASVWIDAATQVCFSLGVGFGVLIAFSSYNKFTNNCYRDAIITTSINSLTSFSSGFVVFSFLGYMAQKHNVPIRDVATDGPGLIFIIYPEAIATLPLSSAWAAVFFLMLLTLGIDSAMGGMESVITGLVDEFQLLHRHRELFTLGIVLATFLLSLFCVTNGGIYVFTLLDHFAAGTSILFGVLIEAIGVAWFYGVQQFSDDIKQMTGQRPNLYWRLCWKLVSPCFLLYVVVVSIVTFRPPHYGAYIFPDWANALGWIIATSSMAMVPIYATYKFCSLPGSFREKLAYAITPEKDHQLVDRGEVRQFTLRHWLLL", "test": "Inhibition of rat brain DAT assessed as reduction of [3H]-DA re-uptake preincubated for 30 mins followed by [3H]-DA addition measured after 5 mins by scintillation counting"}, "[20]": {"test_system": "Homo sapiens", "test": "In vivo receptor occupancy at DAT in iv dosed human measured up to 15 mins by PET analysis", "type": "functional"}, "[21]": {"test": "Half life in human brain", "type": "ADME, tissue-based"}, "[22]": {"test_system": "Homo sapiens", "test": "In vivo receptor occupancy at DAT in human at 3 mg, po administered on day 1 measured on day 14 by […]-based PET imaging analysis", "type": "functional"}, "[23]": {"test": "Half life in human at 0.025 to 5 mg, po by LC-MS/MS analysis", "type": "ADME, organism-based", "settings": "in vivo"}, "[24]": {"test_system": "Homo sapiens", "test": "In vivo receptor occupancy at SERT in human at 0.5 mg, po administered on day 1 measured on day 14 by [11C]-DASB -based PET imaging analysis", "type": "functional"}, "[25]": {"test": "Tmax in human at 0.025 to 5 mg, po by LC-MS/MS analysis", "type": "ADME, organism-based", "settings": "in vivo"}, "[26]": {"test_system": "Mus musculus", "test": "In vivo receptor occupancy at DAT in mouse at 0.3 mg/kg", "type": "functional"}, "[27]": {"test_system": "Mus musculus", "test": "In vivo receptor occupancy at NET in mouse at 0.3 mg/kg", "type": "functional"}, "[28]": {"test_system": "Homo sapiens", "test": "In vivo receptor occupancy at SERT in human at 3 mg, po administered on day 1 measured on day 14 by [11C]-DASB -based PET imaging analysis", "type": "functional"}, "[29]": {"test_system": "Mus musculus", "test": "In vivo receptor occupancy at SERT in mouse at 0.3 mg/kg", "type": "functional"}, "[30]": {"test_system": "Mus musculus", "test": "Antidepressant activity in TST mouse model assessed as reduction in immobility time at 0.3 mg/kg, po relative to control", "type": "functional"}}}
{"molecule": "CN(C)C[C@]1(c2ccc3ccccc3c2)CC[C@](C)(O)CC1", "values": [{"measurement": "IC50", "setting": "[1]", "value": 7, "unit": "nM"}, {"measurement": "IC50", "setting": "[2]", "value": 167, "unit": "nM"}]}
{"molecule": "Clc1ccc([C@@H]2CCNC[C@@]23CCOC3)cc1Cl", "values": [{"measurement": "Ki", "setting": "[3]", "value": 5.01, "unit": "nM"}, {"measurement": "Ki", "setting": "[4]", "value": 79.4, "unit": "nM"}, {"measurement": "Ki", "setting": "[5]", "value": 39.8, "unit": "nM"}]}
{"molecule": "N[C@H]1CC[C@H](c2ccc(Cl)c(Cl)c2)c2ccccc21", "values": [{"measurement": "Occ", "setting": "[6]", "value": "2 - 14%"}, {"measurement": "IC50", "setting": "[7]", "value": 4, "unit": "nM"}, {"measurement": "Occ", "setting": "[8]", "value": "33 - 49%"}, {"measurement": "Tmax", "setting": "[9]", "value": "10 to 12", "unit": "h"}, {"measurement": "half-life", "setting": "[10]", "value": 47, "unit": "h"}, {"measurement": "half-life", "setting": "[11]", "value": "44 to 77", "unit": "h"}, {"measurement": "IC50", "setting": "[12]", "value": 2, "unit": "nM"}]}
{"molecule": "CNC[C@@H](c1ccc2ccccc2c1)[C@@H](O)c1ccccc1", "values": [{"measurement": "Kd", "setting": "[13]", "value": 42, "unit": "nM"}, {"measurement": "Kd", "setting": "[14]", "value": 210, "unit": "nM"}, {"measurement": "Kd", "setting": "[15]", "value": 200, "unit": "nM"}]}
{"molecule": "COC[C@H]1CN[C@H]2CC[C@]1(c1ccc(Cl)c(Cl)c1)C2", "values": [{"measurement": "Ki", "setting": "[3]", "value": 1.26, "unit": "nM"}, {"measurement": "Ki", "setting": "[4]", "value": 0.0794, "unit": "nM"}, {"measurement": "Ki", "setting": "[5]", "value": 1.51, "unit": "nM"}]}
{"molecule": "Cc1cc2cc(OC3C[C@H]4CC[C@@H](C3)N4)ccc2oc1=O", "note": "(some centres not stated)", "values": [{"measurement": "IC50", "setting": "[16]", "value": 0.72, "unit": "nM"}, {"measurement": "IC50", "setting": "[7]", "value": 10, "unit": "nM"}, {"measurement": "IC50", "setting": "[12]", "value": 150, "unit": "nM"}]}
{"molecule": "C[C@]1(O)CC[C@@](CN)(c2ccc(Cl)c(Cl)c2)CC1", "values": [{"measurement": "IC50", "setting": "[1]", "value": "> 10000", "unit": "nM"}, {"measurement": "IC50", "setting": "[2]", "value": 2600, "unit": "nM"}]}
{"molecule": "CC1CCCN(C(=O)CSC[C@H]2CN(C)CC[C@@H]2c2ccc(Cl)cc2)C1", "note": "(some centres not stated)", "values": [{"measurement": "IC50", "setting": "[17]", "value": 84, "unit": "nM"}, {"measurement": "IC50", "setting": "[18]", "value": 15, "unit": "nM"}, {"measurement": "IC50", "setting": "[19]", "value": 120, "unit": "nM"}]}
{"molecule": "Clc1ccc(C2CCNCC23CCOCC3)cc1Cl", "note": "(racemic)", "values": [{"measurement": "Ki", "setting": "[3]", "value": 0.631, "unit": "nM"}, {"measurement": "Ki", "setting": "[4]", "value": 10, "unit": "nM"}, {"measurement": "Ki", "setting": "[5]", "value": 20, "unit": "nM"}]}
{"molecule": "CN(C)C[C@H](c1ccc2ccccc2c1)[C@H](O)C1CCCCC1", "note": "(racemic)", "values": [{"measurement": "Ki", "setting": "[13]", "value": 10, "unit": "nM"}, {"measurement": "Ki", "setting": "[14]", "value": 6, "unit": "nM"}, {"measurement": "Ki", "setting": "[15]", "value": 53, "unit": "nM"}]}
{"molecule": "CNC[C@H](c1ccc2ccccc2c1)[C@H](O)c1ccccc1", "note": "(racemic)", "values": [{"measurement": "Ki", "setting": "[13]", "value": 1.2, "unit": "nM"}, {"measurement": "Ki", "setting": "[14]", "value": 12, "unit": "nM"}, {"measurement": "Ki", "setting": "[15]", "value": 43, "unit": "nM"}]}
{"molecule": "COC(=O)[C@H](c1ccccc1)[C@H]1CCCCN1", "note": "(racemic) [DEXMETHYLPHENIDATE]", "values": [{"measurement": "Occ", "setting": "[20]", "value": 60, "unit": "%"}, {"measurement": "half-life", "setting": "[21]", "value": 1.5, "unit": "h"}]}
{"molecule": "Clc1ccc(C2CCNCC23CCOCC3)cc1Cl", "note": "(stereo in doubt; 171)", "values": [{"measurement": "Ki", "setting": "[3]", "value": 1.26, "unit": "nM"}, {"measurement": "Ki", "setting": "[4]", "value": 63.1, "unit": "nM"}, {"measurement": "Ki", "setting": "[5]", "value": 31.6, "unit": "nM"}]}
{"molecule": "Clc1ccc(C2CCNCC23CCOCC3)cc1Cl", "note": "(stereo in doubt; 172)", "values": [{"measurement": "Ki", "setting": "[3]", "value": 0.316, "unit": "nM"}, {"measurement": "Ki", "setting": "[4]", "value": 3.98, "unit": "nM"}, {"measurement": "Ki", "setting": "[5]", "value": 12.6, "unit": "nM"}]}
{"molecule": "Cc1ccc(C23CNCC2C3)cc1", "note": "(configuration not stated) [BICIFADINE]", "values": [{"measurement": "IC50", "setting": "[16]", "value": 117, "unit": "nM"}, {"measurement": "IC50", "setting": "[7]", "value": 55, "unit": "nM"}, {"measurement": "IC50", "setting": "[12]", "value": 910, "unit": "nM"}]}
{"molecule": "CC(NC(C)(C)C)C(=O)c1cccc(Cl)c1", "note": "(configuration not stated) [BUPROPION]", "values": [{"measurement": "Occ", "setting": "[20]", "value": "<30", "unit": "%"}]}
{"molecule": "COC(=O)[C@H]1[C@@H](OC(=O)c2ccccc2)C[C@@H]2CC[C@H]1N2C", "note": "[COCAINE]", "values": [{"measurement": "half-life", "setting": "[21]", "value": 0.333, "unit": "h"}]}
{"molecule": "COC[C@@]12CNCC[C@]1(c1ccc(Cl)c(Cl)c1)C2", "note": "[GSK1360707]", "values": [{"measurement": "IC50", "setting": "[16]", "value": 9.2, "unit": "nM"}, {"measurement": "IC50", "setting": "[7]", "value": 8.1, "unit": "nM"}, {"measurement": "IC50", "setting": "[12]", "value": 8, "unit": "nM"}]}
{"molecule": "CN1Cc2cc(-c3ccc(N)nn3)ccc2[C@H](c2ccc3ccccc3c2)C1", "note": "[LIAFENSINE]", "values": [{"measurement": "IC50", "setting": "[16]", "value": 1.1, "unit": "nM"}, {"measurement": "Occ", "setting": "[22]", "value": 19, "unit": "%"}, {"measurement": "IC50", "setting": "[7]", "value": 8.8, "unit": "nM"}, {"measurement": "half-life", "setting": "[23]", "value": "34 to 57", "unit": "h"}, {"measurement": "Occ", "setting": "[24]", "value": 19, "unit": "%"}, {"measurement": "Tmax", "setting": "[25]", "value": "5 to 7.2", "unit": "h"}, {"measurement": "Occ", "setting": "[26]", "value": 28, "unit": "%"}, {"measurement": "Occ", "setting": "[27]", "value": 76, "unit": "%"}, {"measurement": "Occ", "setting": "[28]", "value": 82, "unit": "%"}, {"measurement": "Occ", "setting": "[29]", "value": 86, "unit": "%"}, {"measurement": "inhibition in vivo at 0.3 mg/kg", "setting": "[30]", "value": 77, "unit": "%"}]}
